Measured values taken from patent US10081624B2, “Heterocyclic compound” (Takeda Pharmaceutical Company Limited, priority 2014, dated 2018).

biological target: T1, HDAC6 enzyme (Homo sapiens, UniProt Q9UBN7); assay: HDAC6 enzyme inhibitory assay (HDAC-Glo I/II Assay kit); type: biochemical; settings: 1 μM test compound; read-out: HDAC6 inhibitory rate (%) (1 μM)
T1 construct: prepared by transducing full length HDAC1 and HDAC6 genes into Sf-9 insect cells; GST; purchased SignalChem; host or cells: Sf-9 insect cells
T1 sequence (Q9UBN7 1-1215): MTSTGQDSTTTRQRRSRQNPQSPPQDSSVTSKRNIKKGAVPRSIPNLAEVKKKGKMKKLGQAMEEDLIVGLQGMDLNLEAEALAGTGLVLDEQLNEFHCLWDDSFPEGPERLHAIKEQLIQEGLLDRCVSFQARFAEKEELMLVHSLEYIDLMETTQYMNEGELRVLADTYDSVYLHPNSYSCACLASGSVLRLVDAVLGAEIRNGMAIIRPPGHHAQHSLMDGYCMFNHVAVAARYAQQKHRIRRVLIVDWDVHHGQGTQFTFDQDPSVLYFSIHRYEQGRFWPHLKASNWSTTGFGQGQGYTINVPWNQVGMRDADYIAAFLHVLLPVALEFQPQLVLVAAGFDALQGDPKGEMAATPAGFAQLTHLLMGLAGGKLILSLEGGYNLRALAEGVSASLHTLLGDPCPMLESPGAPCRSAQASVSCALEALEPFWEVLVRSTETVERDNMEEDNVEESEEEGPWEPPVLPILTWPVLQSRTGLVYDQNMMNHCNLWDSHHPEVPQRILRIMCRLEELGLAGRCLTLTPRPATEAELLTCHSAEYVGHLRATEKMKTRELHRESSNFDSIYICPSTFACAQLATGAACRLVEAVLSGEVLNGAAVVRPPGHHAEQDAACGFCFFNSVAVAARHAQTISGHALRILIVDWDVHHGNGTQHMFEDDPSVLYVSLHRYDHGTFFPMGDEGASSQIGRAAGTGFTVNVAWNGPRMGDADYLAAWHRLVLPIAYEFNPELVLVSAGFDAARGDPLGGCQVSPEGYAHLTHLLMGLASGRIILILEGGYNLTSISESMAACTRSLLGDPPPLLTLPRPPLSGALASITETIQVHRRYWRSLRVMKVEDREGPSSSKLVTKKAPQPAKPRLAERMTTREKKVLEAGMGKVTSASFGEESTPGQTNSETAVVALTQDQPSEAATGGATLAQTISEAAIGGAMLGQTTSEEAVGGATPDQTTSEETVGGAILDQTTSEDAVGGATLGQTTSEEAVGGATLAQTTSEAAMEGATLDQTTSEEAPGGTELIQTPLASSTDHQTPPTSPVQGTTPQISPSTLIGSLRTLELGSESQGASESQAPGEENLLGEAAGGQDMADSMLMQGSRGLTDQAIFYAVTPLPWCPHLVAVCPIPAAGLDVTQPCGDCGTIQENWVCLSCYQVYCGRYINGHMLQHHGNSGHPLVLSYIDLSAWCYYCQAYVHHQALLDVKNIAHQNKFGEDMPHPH
Procedure: HDAC1 enzyme and HDAC6 enzyme each prepared by transducing full length HDAC1 and HDAC6 genes into Sf-9 insect cells and purifying by GST affinity column were purchased from SignalChem. Using these enzymes, HDAC1 and/or HDAC6 enzyme inhibitory activities of the compound of the present invention were evaluated. Enzymes were used after preserved at −70° C. HDAC1 or HDAC6 enzyme inhibitory activity of the compound of the present invention was measured using HDAC-Glo™ I/II Assay kit (Promega) according to the following experimental method. The test compound diluted with assay buffer (24 mM Tris-HCl (pH 7.5), 1 mM MgCl2, 0.35 mM KCl, 135 mM NaCl, 0.6 mM Glutathione, 0.01% Tween-20) was added to a 384-well plate by each 2 μL. Then, HDAC1 or HDAC6 enzyme solution diluted with assay buffer was added thereto by each 4 μL, and the plate was incubated at room temperature for 60 min. After incubated, HDAC substrate-Developer solution prepared according to Promega protocol attached to the assay kit was added to the 384-well plate by each 2 μL, and the enzyme reaction was started. After reacting at room temperature for 20 min, luminescence level was measured using plate reader Envision (PerkinElmer). The inhibitory activity of each compound was calculated as a relative activity value when luminescence level in wells without enzyme is considered as 100% inhibition.

| Compound | inhibition at 1 µM |
| --- | --- |
| O=C(NCC1COCCN1C(=O)c1cccs1)c1ccc(-c2noc(C(F)(F)F)n2)s1 (stereo not shown) [Example 241, N-((4-(2-thienylcarbonyl)morpholin-3-yl)methyl)-5-(5-(trifluoromethyl)-1,2,4-oxadiazol-3-yl)thiophene-2-carboxamide] | 94% |
| N#Cc1ccccc1C(=O)N1CCOCC1CNC(=O)c1ccc(-c2noc(C(F)(F)F)n2)s1 (stereo not shown) [Example 217, N-((4-(2-cyanobenzoyl)morpholin-3-yl)methyl)-5-(5-(trifluoromethyl)-1,2,4-oxadiazol-3-yl)thiophene-2-carboxamide] | 94% |
| Cn1nccc1C(=O)N1CCOC[C@H]1CNC(=O)c1ccc(-c2noc(C(F)(F)F)n2)cc1 [Example 154, N-(((3R)-4-((1-methyl-1H-pyrazol-5-yl)carbonyl)morpholin-3-yl)methyl)-4-(5-(trifluoromethyl)-1,2,4-oxadiazol-3-yl)benzamide] | 89% |
| O=C(NC[C@H]1COCCN1C(=O)c1cc(F)cc(F)c1)c1ccc(-c2noc(C(F)(F)F)n2)cn1 [Example 186, N-(((3S)-4-(3,5-difluorobenzoyl)morpholin-3-yl)methyl)-5-(5-(trifluoromethyl)-1,2,4-oxadiazol-3-yl)pyridine-2-carboxamide] | 99% |
| Cn1nccc1C(=O)N1CCOCC1CNC(=O)c1ccc(-c2noc(C(F)(F)F)n2)s1 (stereo not shown) [Example 229, N-((4-((1-methyl-1H-pyrazol-5-yl)carbonyl)morpholin-3-yl)methyl)-5-(5-(trifluoromethyl)-1,2,4-oxadiazol-3-yl)thiophene-2-carboxamide] | 97% |
| O=C(NC[C@@H]1COCCN1C(=O)c1cc2ncccn2n1)c1ccc(-c2noc(C(F)(F)F)n2)cc1 [Example 126, N-(((3R)-4-(pyrazolo[1,5-a]pyrimidin-2-ylcarbonyl)morpholin-3-yl)methyl)-4-(5-(trifluoromethyl)-1,2,4-oxadiazol-3-yl)benzamide] | 88% |
| O=C(NC[C@H]1COCCN1C(=O)c1cc[nH]n1)c1ccc(-c2noc(C(F)(F)F)n2)cc1 [Example 71, N-(((3S)-4-(1H-pyrazol-3-ylcarbonyl)morpholin-3-yl)methyl)-4-(5-(trifluoromethyl)-1,2,4-oxadiazol-3-yl)benzamide] | 89% |
| O=C(NCC1COCCN1C(=O)c1ccccc1)c1cc(-c2noc(C(F)(F)F)n2)cs1 (stereo not shown) [Example 267, N-((4-benzoylmorpholin-3-yl)methyl)-4-(5-(trifluoromethyl)-1,2,4-oxadiazol-3-yl)thiophene-2-carboxamide] | 52% |
| O=C(NCC1Cc2ccccc2N1C(=O)c1cc(Cl)cc(Cl)c1)c1ccc(-c2noc(C(F)(F)F)n2)cc1 (stereo not shown) [Example 168, N-((1-(3,5-dichlorobenzoyl)-2,3-dihydro-1H-indol-2-yl)methyl)-4-(5-(trifluoromethyl)-1,2,4-oxadiazol-3-yl)benzamide] | 70% |
| Cc1cc(C(=O)N2CCOCC2CNC(=O)c2ccc(-c3noc(C(F)(F)F)n3)cc2)ccn1 (stereo in doubt) [Example 121, N-(((3R)-4-(2-methylisonicotinoyl)morpholin-3-yl)methyl)-4-(5-(trifluoromethyl)-1,2,4-oxadiazol-3-yl)benzamide] | 87% |
| Cc1cc(C(=O)N2CCOC[C@@H]2CNC(=O)c2ccc(-c3noc(C(F)(F)F)n3)cc2)on1 [Example 62, N-(((3S)-4-((3-methyl-1,2-oxazol-5-yl)carbonyl)morpholin-3-yl)methyl)-4-(5-(trifluoromethyl)-1,2,4-oxadiazol-3-yl)benzamide] | 93% |
| O=C(NC[C@@H]1COCCN1C(=O)C1CCCO1)c1ccc(-c2noc(C(F)(F)F)n2)cc1 (stereo partly drawn) [Example 150, N-(((3R)-4-(tetrahydrofuran-2-ylcarbonyl)morpholin-3-yl)methyl)-4-(5-(trifluoromethyl)-1,2,4-oxadiazol-3-yl)benzamide] | 90% |
| O=C(NC[C@H]1COCCN1C(=O)c1cccc(F)c1)c1ccc(-c2noc(C(F)(F)F)n2)cn1 [Example 185, N-(((3S)-4-(3-fluorobenzoyl)morpholin-3-yl)methyl)-5-(5-(trifluoromethyl)-1,2,4-oxadiazol-3-yl)pyridine-2-carboxamide] | 97% |
| O=C(NC[C@@H]1COCCN1C(=O)C1CCOC1)c1ccc(-c2noc(C(F)(F)F)n2)cc1 (stereo partly drawn) [Example 151, N-(((3R)-4-(tetrahydrofuran-3-ylcarbonyl)morpholin-3-yl)methyl)-4-(5-(trifluoromethyl)-1,2,4-oxadiazol-3-yl)benzamide] | 90% |
| O=C(NCC1Cc2ccccc2N1C(=O)C1CC1)c1ccc(-c2noc(C(F)(F)F)n2)cc1 (stereo not shown) [Example 166, N-((1-(cyclopropylcarbonyl)-2,3-dihydro-1H-indol-2-yl)methyl)-4-(5-(trifluoromethyl)-1,2,4-oxadiazol-3-yl)benzamide] | 98% |
| Cn1nc(C(F)(F)F)cc1C(=O)N1CCOC[C@H]1CNC(=O)c1ccc(-c2noc(C(F)(F)F)n2)cc1 [Example 136, N-(((3R)-4-((1-methyl-3-(trifluoromethyl)-1H-pyrazol-5-yl)carbonyl)morpholin-3-yl)methyl)-4-(5-(trifluoromethyl)-1,2,4-oxadiazol-3-yl)benzamide] | 92% |
| O=C(NCC1Cc2ccccc2CN1C(=O)C1CC1)c1ccc(-c2noc(C(F)(F)F)n2)cc1 (stereo not shown) [Example 174, N-((2-(cyclopropylcarbonyl)-1,2,3,4-tetrahydroisoquinolin-3-yl)methyl)-4-(5-(trifluoromethyl)-1,2,4-oxadiazol-3-yl)benzamide] | 94% |
| O=C(NCC1COCCN1C(=O)c1cc(F)cc(F)c1)c1ccc(-c2noc(C(F)(F)F)n2)s1 (stereo not shown) [Example 213, N-((4-(3,5-difluorobenzoyl)morpholin-3-yl)methyl)-5-(5-(trifluoromethyl)-1,2,4-oxadiazol-3-yl)thiophene-2-carboxamide] | 95% |
| N#Cc1ccc(C(=O)N2CCOCC2CNC(=O)c2ccc(-c3noc(C(F)(F)F)n3)cc2)cc1 (stereo in doubt) [Example 117, N-(((3R)-4-(4-cyanobenzoyl)morpholin-3-yl)methyl)-4-(5-(trifluoromethyl)-1,2,4-oxadiazol-3-yl)benzamide] | 93% |
| O=C(NCC1COCCN1C(=O)c1cccc(F)c1)c1ccc(-c2noc(C(F)(F)F)n2)s1 (stereo not shown) [Example 212, N-((4-(3-fluorobenzoyl)morpholin-3-yl)methyl)-5-(5-(trifluoromethyl)-1,2,4-oxadiazol-3-yl)thiophene-2-carboxamide] | 97% |
| O=C(NCC1COCCN1C(=O)c1ccccc1-c1ccccc1)c1ccc(-c2noc(C(F)(F)F)n2)s1 (stereo not shown) [Example 221, N-((4-(biphenyl-2-ylcarbonyl)morpholin-3-yl)methyl)-5-(5-(trifluoromethyl)-1,2,4-oxadiazol-3-yl)thiophene-2-carboxamide] | 91% |
| Cc1oncc1C(=O)N1CCOC[C@H]1CNC(=O)c1ccc(-c2noc(C(F)(F)F)n2)cc1 [Example 131, N-(((3R)-4-((5-methyl-1,2-oxazol-4-yl)carbonyl)morpholin-3-yl)methyl)-4-(5-(trifluoromethyl)-1,2,4-oxadiazol-3-yl)benzamide] | 87% |
